According to ChEMBL document CHEMBL4477164, “Domino Synthesis of Embelin Derivatives with Antibacterial Activity” (2016):
The source made the active and inactive calls. The rule behind the calls is not given here.

Experiments:
Escherichia coli = experiment: Antibacterial activity against Escherichia coli assessed as bacterial growth inhibition after 24 hrs by broth dilution method; assay type: functional, organism-based
Staphylococcus aureus [1] = experiment: Antibacterial activity against vancomycin/methicillin-sensitive Staphylococcus aureus ATCC 25923 assessed as bacterial growth inhibition after 24 hrs by broth dilution method; assay type: functional; settings: ATCC 25923, 24 h
Staphylococcus aureus [2] = experiment: Antibacterial activity against vancomycin-intermediate/methicillin-resistant Staphylococcus aureus NRS402 assessed as bacterial growth inhibition after 24 hrs by broth dilution method; assay type: functional; settings: NRS402, 24 h
Pseudomonas aeruginosa = experiment: Antibacterial activity against Pseudomonas aeruginosa assessed as bacterial growth inhibition after 24 hrs by broth dilution method; assay type: functional, organism-based

CCCCCCCCCCCC1=C(O)C(=O)C([C@H]2[C@H](C)CC[C@@H]2C(C)(C)OCC)=C(O)C1=O (racemic)
Activity (Escherichia coli): inactive
MIC (Staphylococcus aureus [1]): > 128 µM
MIC (Staphylococcus aureus [2]): > 128 µM
Activity (Pseudomonas aeruginosa): inactive

C/C(=C\C(=O)OCCCCCCCCC(=O)O)C[C@@H]1OC[C@H](C[C@@H]2O[C@H]2[C@@H](C)[C@H](C)O)[C@@H](O)[C@H]1O [MUPIROCIN]
MIC (Staphylococcus aureus [1]): < 1 µg/mL
MIC (Staphylococcus aureus [2]): < 1 µg/mL

CCCCCCCCCCCC1=C(O)C(=O)C2=C(OC(C)(C)[C@@H]3COc4ccc(Cl)cc4[C@H]23)C1=O (relative stereo)
Activity (Escherichia coli): inactive
MIC (Staphylococcus aureus [1]): 4 µM
MIC (Staphylococcus aureus [2]): 1 µM
Activity (Pseudomonas aeruginosa): inactive

CCCCCCCCCCCC1=C(O)C(=O)C2=C(OC(C)(C)[C@H]3CC[C@@H](C)[C@H]23)C1=O (racemic)
Activity (Escherichia coli): inactive
MIC (Staphylococcus aureus [1]): 64 µM
MIC (Staphylococcus aureus [2]): 4 µM
Activity (Pseudomonas aeruginosa): inactive

CCCCCCCCCCCC1=C(O)C(=O)C2=C(OC(C)(C)[C@@H]3COc4ccc5ccccc5c4[C@H]23)C1=O (racemic)
Activity (Escherichia coli): inactive
MIC (Staphylococcus aureus [1]): > 128 µM
MIC (Staphylococcus aureus [2]): > 128 µM
Activity (Pseudomonas aeruginosa): inactive

CCCCCCCCCCCC1=C(O)C(=O)C2=C(OC(C)(C)[C@H]3COc4ccc(OCC=C(C)C)cc4[C@H]23)C1=O (relative stereo)
Activity (Escherichia coli): inactive
MIC (Staphylococcus aureus [1]): > 128 µM
MIC (Staphylococcus aureus [2]): > 128 µM
Activity (Pseudomonas aeruginosa): inactive

CCCCCCCCCCCC1=C(O)C(=O)C2=C(OC(C)(C)[C@@H]3COc4ccc(OCC=C(C)C)cc4[C@H]23)C1=O (relative stereo)
Activity (Escherichia coli): inactive
MIC (Staphylococcus aureus [1]): > 128 µM
MIC (Staphylococcus aureus [2]): > 128 µM
Activity (Pseudomonas aeruginosa): inactive

CCCCCCCCCCCC1=C(O)C(=O)C2=C(OC(C)(C)[C@H]3CC[C@H](C)C[C@H]23)C1=O
Activity (Escherichia coli): inactive
MIC (Staphylococcus aureus [1]): 8 µM
MIC (Staphylococcus aureus [2]): 1 µM
Activity (Pseudomonas aeruginosa): inactive

Cc1onc(-c2ccccc2)c1C(=O)N[C@@H]1C(=O)N2[C@@H]1SC(C)(C)[C@@H]2C(=O)O [OXACILLIN]
MIC (Staphylococcus aureus [1]): < 1 µg/mL
MIC (Staphylococcus aureus [2]): > 128 µg/mL

CCCCCCCCCCCC1=C(O)C(=O)C2=C(OC(C)(C)[C@H]3COc4ccc(Br)cc4[C@H]23)C1=O (relative stereo)
Activity (Escherichia coli): inactive
MIC (Staphylococcus aureus [1]): 16 µM
MIC (Staphylococcus aureus [2]): 32 µM
Activity (Pseudomonas aeruginosa): inactive

CCCCCCCCCCCC1=C(O)C(=O)C2=C(OC(C)(C)[C@H]3COc4ccc(Cl)cc4[C@H]23)C1=O (relative stereo)
Activity (Escherichia coli): inactive
MIC (Staphylococcus aureus [1]): 4 µM
MIC (Staphylococcus aureus [2]): 2 µM
Activity (Pseudomonas aeruginosa): inactive

CCCCCCCCCCCC1=C(O)C(=O)C2=C(OC(C)(C)[C@H]3COc4cc(OC)ccc4[C@H]23)C1=O (relative stereo)
Activity (Escherichia coli): inactive
MIC (Staphylococcus aureus [1]): 64 µM
MIC (Staphylococcus aureus [2]): 4 µM
Activity (Pseudomonas aeruginosa): inactive

CCCCCCCCCCCC1=C(O)C(=O)C2=C(OC(C)(C)[C@@H]3COc4cc(OC)ccc4[C@H]23)C1=O (relative stereo)
Activity (Escherichia coli): inactive
MIC (Staphylococcus aureus [1]): 8 µM
MIC (Staphylococcus aureus [2]): 1 µM
Activity (Pseudomonas aeruginosa): inactive

CCCCCCCCCCCC1=C(O)C(=O)C2=C(OC(C)(C)[C@@H]3COc4ccc(Br)cc4[C@H]23)C1=O (relative stereo)
Activity (Escherichia coli): inactive
MIC (Staphylococcus aureus [1]): 16 µM
MIC (Staphylococcus aureus [2]): 32 µM
Activity (Pseudomonas aeruginosa): inactive

CCCCCCCCCCCC1=C(O)C(=O)C=C(O)C1=O [EMBELIN]
Activity (Escherichia coli): inactive
MIC (Staphylococcus aureus [1]): 32 µM
MIC (Staphylococcus aureus [2]): 16 µM
Activity (Pseudomonas aeruginosa): inactive

CN[C@H](CC(C)C)C(=O)N[C@H]1C(=O)N[C@@H](CC(N)=O)C(=O)N[C@H]2C(=O)N[C@H]3C(=O)N[C@H](C(=O)N[C@H](C(=O)O)c4cc(O)cc(O)c4-c4cc3ccc4O)[C@H](O)c3ccc(c(Cl)c3)Oc3cc2cc(c3O[C@@H]2O[C@H](CO)[C@@H](O)[C@H](O)[C@H]2O[C@H]2C[C@](C)(N)[C@H](O)[C@H](C)O2)Oc2ccc(cc2Cl)[C@H]1O [VANCOMYCIN]
MIC (Staphylococcus aureus [1]): < 1 µg/mL
